Columns and labels:
[1] = system: Class I molecules on transduced C1R B cells; assay: Binding of iodinated B27 allele-specific peptide, immunoprecipitation with antibody 4E; format: cell-based, human; details: transduced C1R B cells exposed to 8-MOP
Protocol: To determine if the Class I MHC molecules induced in Example 5 remained functional, i.e., could be loaded with a known B27 allele-specific peptide, iodinated peptide was added under varied conditions.

[2] = system: C1R human B lymphoblasts displaying B27 Class I complex; assay: Class I MHC level of C1R cells incubated in various containers, cytofluorimeter (FIG. 5); format: cell-based; details: photoactivated 8-MOP in the 2410 bag (no leachable plasticizers), about 24 hours at 37° C.
Protocol: In the foregoing experiment, C1R human B lymphoblasts, cells molecularly engineered so that they display a readily studied B27 Class I protein complex, were exposed to photoactivated 8-MOP in the presence of various plastic containers. The mean fluorescence intensity was measured in a cytofluorimeter, using monoclonal antibodies specific for the B27 Class I complex.

[3] = system: human B lymphoblasts lacking the TAP genes or with TAP blocked by transduced ICP47; assay: TAP dependence of the 8-MOP-induced Class I increase (FIG. 4); format: cell-based; details: B lymphoblasts that lacked the TAP genes or had them blocked by transduced ICP47 (both conditions)
Protocol: Next, it was determined that the 8-MOP-induced increase in surface Class I molecules is dependent on peptide transport across the endoplasmic reticulum through the transporter associated with […] (TAP) pores. […] The increased immunogenicity of 8MOP treated disease-effector cells was thus shown to involve the augmented catabolism of proteins, leading to the generation of small peptides that are then transported to Class I molecules in the endoplasmic reticulum and then on to the cell surface where they associate with the Class I molecules.

[4] = system: C1R B lymphoblastoid line transduced with the Class I B27 allele; assay: Class I expression on B27-transduced C1R B lymphoblastoid line, labeled W6/32 monoclonal antibody (FIG. 3); format: cell-based, human; details: for impact on Class I expression: other pharmacologic agents compared with 8-MOP
Protocol: In order to evaluate the enhanced immunogenicity of 8-MOP treated CTCL cells, a series of human lymphoblast lines was derived. The C1R B lymphoblastoid line, which in its native state expresses no HLA-A or HLA-B surface Class I and only a minute amount of HLA-C molecules was transduced with the Class I B27 allele. This modified cell population, with nearly all of its surface Class I molecules being B27, was exposed to 8MOP and incubated overnight.

[5] = system: Class I protein on the cell surface; assay: Class I expression after 8-MOP/UVA, fluorescent antibody, mean fluorescence channel (FIG. 2); format: cell-based
Excerpt: Mean fluorescence channel measurements permit the quantification of the amount of Class I protein on the cell surface, as identified with a fluorescent antibody against the Class I protein.

Compound: COc1c2occc2cc2ccc(=O)oc12 [8-MOP, 8-methoxypsoralen]
- allele-specific peptide bound versus untreated cell line control [1]: approximately 3 fold
- increase in functional Class I molecules per cell [1]: > 10,000 functional Class I molecules per cell
- Class I MHC level versus untreated controls [2]: more than doubled
- 8-MOP induced increase in Class I molecules [3]: prevented
- Class I expression ([4]; UVA administered before the addition of 8-MOP, drug not photoactivated): only a minor increase
- time to peak levels of Class I expression after exposure ([4]; optimal levels of 8-MOP): 20 h
- increase of Class I expression over background ([4]; photoactivated 8-MOP, optimal levels, overnight incubation): approximately 3 fold
- Class I molecule expression ([5]; 1 joule per cm^2 of UVA and 200 ng/ml of 8-MOP, incubation about 18 hours, versus control cells): about doubles

Compound: CC[C@H]1CN2CCc3cc(OC)c(OC)cc3[C@@H]2C[C@@H]1C[C@H]1NCCc2cc(OC)c(OC)cc21 [emetine]
- effect on the 8-MOP/UVA-induced increase in Class I expression ([5]; emetine added to 8-MOP/UVA treated cells): prevented

Compound: CO[C@@]12[C@H](COC(N)=O)C3=C(C(=O)C(C)=C(N)C3=O)N1C[C@@H]1N[C@@H]12 [mytomycin C]
- impact on Class I expression [4]: either no or a more limited impact

Compound: TNF-α
- impact on Class I expression [4]: either no or a more limited impact

Compound: γ-interferon: other pharmacologic agent compared with 8-MOP
- impact on Class I expression [4]: either no or a more limited impact

— US20020098469A1, “EXTRACORPOREAL METHODS FOR ENHANCING ANTIGEN PRESENTATION AND IMMUNE RESPONSIVENESS” (morgan ,lewis, bockius llp, priority 1996, published 2002)
